Measured values reported in US12655126B2, “Imidazole-pyrazole derivatives as antibacterials” (Hoffmann-La Roche Inc., priority 2020, dated 2026).
Structures can show the parent of a compound that is named as a salt.

System: Acinetobacter baumannii ATCC17961
Test: Antimicrobial susceptibility testing: 90% growth inhibitory concentration (IC90) determination
Format: cell-based
Details: Acinetobacter baumannii ATCC17961; Iso-Sensitest broth; growth by OD 600 nm over 16 h; 90% growth inhibitory concentration; read-out: ATCC 17961 IC90
Description: Antimicrobial Susceptibility Testing:
90% Growth Inhibitory Concentration (IC90) Determination
The in vitro antimicrobial activity of the compounds was determined according to the following procedure:
The assay used a 10-points Iso-Sensitest broth medium to measure quantitatively the in vitro activity of the compounds against Acinetobacter baumannii ATCC17961.
Stock compounds in DMSO were serially twofold diluted (e.g. range from 50 to 0.097 μM final concentration) in 384 wells microtiter plates and inoculated with 49 μl the bacterial suspension in Iso-Sensitest medium to have a final cell concentration of ˜5×10^(5) CFU/ml in a final volume/well of 50 ul/well. Microtiter plates were incubated at 35±2° C.
Bacterial cell growth was determined with the measurement of optical density at λ=600 nm each minutes over a time course of 16 h. Growth inhibition was calculated during the logarithmic growth of the bacterial cells with determination of the concentration inhibiting 50% (IC50) and 90% (IC90) of the growth.
Table 1 provides the 90% growth inhibitory concentrations (IC90) in micromoles per liter of the compounds of present invention obtained against the strain Acinetobacter baumannii ATCC17961.

| SMILES | IC90 |
| --- | --- |
| Cn1c(-c2cn(-c3ccc(N)cn3)nc2C(F)(F)F)cnc1C(=O)Nc1ccc(C(=O)N2CCN(C(=O)[C@@H]3[C@@H](O)CC[N+]3(C)C)CC2)c(Cl)c1 (racemic) [Example D2, 5-[1-(5-amino-2-pyridyl)-3-(trifluoromethyl)pyrazol-4-yl]-N-[3-chloro-4-[4-[(2S,3S)-3-hydroxy-1,1-dimethyl-pyrrolidin-1-ium-2-carbonyl]piperazine-1-carbonyl]phenyl]-1-methyl-imidazole-2-carboxamide; formate] | 400 nM |
| Cn1c(-c2cn(-c3ccc(N)cn3)nc2C(F)(F)F)cnc1C(=O)Nc1ccc(C(=O)N2CCN(C(=O)[C@@H]3CC[N+](C)(C)C[C@@H]3O)CC2)c(Cl)c1 (stereo in doubt) [Example D5, 5-[1-(5-amino-2-pyridyl)-3-(trifluoromethyl)pyrazol-4-yl]-N-[3-chloro-4-[4-[(3R,4R)-3-hydroxy-1,1-dimethyl-piperidin-1-ium-4-carbonyl]piperazine-1-carbonyl]phenyl]-1-methyl-imidazole-2-carboxamide; formate] | 240 nM |
| Cn1c(-c2cn(-c3ccc(N)cn3)nc2C(F)(F)F)cnc1C(=O)Nc1ccc(C(=O)N2CCN(C(=O)[C@@H]3CC[N+](C)(C)C[C@H]3O)CC2)c(Cl)c1 (stereo in doubt) [Example D6, 5-[1-(5-amino-2-pyridyl)-3-(trifluoromethyl)pyrazol-4-yl]-N-[3-chloro-4-[4-[(3S,4R)-3-hydroxy-1,1-dimethyl-piperidin-1-ium-4-carbonyl]piperazine-1-carbonyl]phenyl]-1-methyl-imidazole-2-carboxamide; formate] | 370 nM |
| Cn1c(-c2cn(-c3ccc(N)cn3)nc2C(F)(F)F)cnc1C(=O)Nc1ccc(C(=O)N2CCN(C(=O)[C@H]3CC[N+](C)(C)C[C@H]3O)CC2)c(Cl)c1 (stereo in doubt) [Example D7, 5-[1-(5-amino-2-pyridyl)-3-(trifluoromethyl)pyrazol-4-yl]-N-[3-chloro-4-[4-[(3S,4S)-3-hydroxy-1,1-dimethyl-piperidin-1-ium-4-carbonyl]piperazine-1-carbonyl]phenyl]-1-methyl-imidazole-2-carboxamide; formate] | 400 nM |
| Cn1c(-c2cn(-c3ccc(N)cn3)nc2C(F)(F)F)cnc1C(=O)Nc1ccc(C(=O)N2CCN(C(=O)[C@H]3CC[N+](C)(C)C[C@@H]3O)CC2)c(Cl)c1 (stereo in doubt) [Example D8, 5-[1-(5-amino-2-pyridyl)-3-(trifluoromethyl)pyrazol-4-yl]-N-[3-chloro-4-[4-[(3R,4S)-3-hydroxy-1,1-dimethyl-piperidin-1-ium-4-carbonyl]piperazine-1-carbonyl]phenyl]-1-methyl-imidazole-2-carboxamide; formate] | 230 nM |
| Cn1c(-c2cn(-c3ccc(C(N)=O)cn3)nc2C(F)(F)F)cnc1C(=O)Nc1ccc(C(=O)N2CCN(C(=O)C3CC[N+](C)(C)CC3)CC2)c(Cl)c1 [Example A2, 6-[4-[2-[[3-chloro-4-[4-(1,1-dimethylpiperidin-1-ium-4-carbonyl)piperazine-1-carbonyl]phenyl]carbamoyl]-3-methyl-imidazol-4-yl]-3-(trifluoromethyl)pyrazol-1-yl]pyridine-3-carboxamide; formate] | 980 nM |
| CNC(=O)c1ccc(-n2cc(-c3cnc(C(=O)Nc4ccc(C(=O)N5CCN(C(=O)C6CC[N+](C)(C)CC6)CC5)c(Cl)c4)n3C)c(C(F)(F)F)n2)nc1 [Example A3, 6-[4-[2-[[3-chloro-4-[4-(1,1-dimethylpiperidin-1-ium-4-carbonyl)piperazine-1-carbonyl]phenyl]carbamoyl]-3-methyl-imidazol-4-yl]-3-(trifluoromethyl)pyrazol-1-yl]-N-methyl-pyridine-3-carboxamide; formate] | 820 nM |
| Cc1ccc(-n2cc(-c3cnc(C(=O)Nc4ccc(C(=O)N5CCN(C(=O)C6CC[N+](C)(C)CC6)CC5)c(Cl)c4)n3C)c(C(F)(F)F)n2)nc1 [Example A4, N-[3-chloro-4-[4-(1,1-dimethylpiperidin-1-ium-4-carbonyl)piperazine-1-carbonyl]phenyl]-1-methyl-5-[1-(5-methyl-2-pyridyl)-3-(trifluoromethyl)pyrazol-4-yl]imidazole-2-carboxamide; formate] | 250 nM |
| Cn1c(-c2cn(-c3ccc(N)cn3)nc2C(F)F)cnc1C(=O)Nc1ccc(C(=O)N2CCN(C(=O)C3CC[N+](C)(C)CC3)CC2)c(Cl)c1 [Example A5, 5-[1-(5-amino-2-pyridyl)-3-(difluoromethyl)pyrazol-4-yl]-N-[3-chloro-4-[4-(1,1-dimethylpiperidin-1-ium-4-carbonyl)piperazine-1-carbonyl]phenyl]-1-methyl-imidazole-2-carboxamide; 2,2,2-trifluoroacetate] | 760 nM |
| COc1ccc(-n2cc(-c3cnc(C(=O)Nc4ccc(C(=O)N5CCN(C(=O)C[N+]6(C)CC[C@@H](O)C6)CC5)c(Cl)c4)n3C)c(C(F)(F)F)n2)nc1 (stereo partly drawn) [Example A7, N-[3-chloro-4-[4-[2-[(3R)-3-hydroxy-1-methyl-pyrrolidin-1-ium-1-yl]acetyl]piperazine-1-carbonyl]phenyl]-5-[1-(5-methoxy-2-pyridyl)-3-(trifluoromethyl)pyrazol-4-yl]-1-methyl-imidazole-2-carboxamide; formate] | 550 nM |
| Cn1c(-c2cn(-c3ncc(N)cc3F)nc2C(F)(F)F)cnc1C(=O)Nc1ccc(C(=O)N2CCN(C(=O)C3CC[N+](C)(C)CC3)CC2)c(Cl)c1 [Example A8, 5-[1-(5-amino-3-fluoro-2-pyridyl)-3-(trifluoromethyl)pyrazol-4-yl]-N-[3-chloro-4-[4-(1,1-dimethylpiperidin-1-ium-4-carbonyl)piperazine-1-carbonyl]phenyl]-1-methyl-imidazole-2-carboxamide] | 330 nM |
| Cc1cc(-n2cc(-c3cnc(C(=O)Nc4ccc(C(=O)N5CCN(C(=O)C6CC[N+](C)(C)CC6)CC5)c(Cl)c4)n3C)c(C(F)(F)F)n2)ncc1N [Example A9, 5-[1-(5-amino-4-methyl-2-pyridyl)-3-(trifluoromethyl)pyrazol-4-yl]-N-[3-chloro-4-[4-(1,1-dimethylpiperidin-1-ium-4-carbonyl)piperazine-1-carbonyl]phenyl]-1-methyl-imidazole-2-carboxamide] | 290 nM |
| Cn1c(-c2cn(-c3ccc(N)c(F)n3)nc2C(F)(F)F)cnc1C(=O)Nc1ccc(C(=O)N2CCN(C(=O)C3CC[N+](C)(C)CC3)CC2)c(Cl)c1 [Example A10, 5-[1-(5-amino-6-fluoro-2-pyridyl)-3-(trifluoromethyl)pyrazol-4-yl]-N-[3-chloro-4-[4-(1,1-dimethylpiperidin-1-ium-4-carbonyl)piperazine-1-carbonyl]phenyl]-1-methyl-imidazole-2-carboxamide] | 510 nM |
| Cc1nc(-n2cc(-c3cnc(C(=O)Nc4ccc(C(=O)N5CCN(C(=O)C6CC[N+](C)(C)CC6)CC5)c(Cl)c4)n3C)c(C(F)(F)F)n2)ccc1N [Example A11, 5-[1-(5-amino-6-methyl-2-pyridyl)-3-(trifluoromethyl)pyrazol-4-yl]-N-[3-chloro-4-[4-(1,1-dimethylpiperidin-1-ium-4-carbonyl)piperazine-1-carbonyl]phenyl]-1-methyl-imidazole-2-carboxamide] | 230 nM |

Same assay, conditions: Acinetobacter baumannii, ATCC17961, 16 h, read-out: ATCC 17961 IC90

| SMILES | IC90 |
| --- | --- |
| Cn1c(-c2cn(-c3ncccn3)nc2C(F)(F)F)cnc1C(=O)Nc1ccc(C(=O)N[C@H]2[C@@H]3CN(C(=O)[C@@H]4C[C@@H](O)C[N+]4(C)C)C[C@@H]32)c(Cl)c1 (racemic) [Example B8, rac-(2R,4S)-2-((1R,5S,6S)-6-(2-chloro-4-(1-methyl-5-(1-(pyrimidin-2-yl)-3-(trifluoromethyl)-1H-pyrazol-4-yl)-1H-imidazole-2-carboxamido)benzamido)-3-azabicyclo[3.1.0]hexane-3-carbonyl)-4-hydroxy-1,1-dimethylpyrrolidin-1-ium] | 1500 nM |
| Cn1c(-c2cn(-c3ccc(N)cn3)nc2C(F)(F)F)cnc1C(=O)Nc1ccc(C(=O)N[C@H]2[C@@H]3CN(C(=O)N[C@@H]4C[N+](C)(C)C[C@H]4O)C[C@@H]32)c(Cl)c1 (racemic) [Example D18, (exo)-6-[[4-[[5-[1-(5-Aminopyridin-2-yl)-3-(trifluoromethyl)pyrazol-4-yl]-1-methylimidazole-2-carbonyl]amino]-2-chlorobenzoyl]amino]-N-[rac-(trans)-4-hydroxy-1,1-dimethylpyrrolidin-1-ium-3-yl]-3-azabicyclo[3.1.0]hexane-3-carboxamide; formate] | 290 nM |
| COc1ccc(-n2cc(-c3cnc(C(=O)Nc4ccc(C(=O)N5CCN(C(=O)C6CC[N+](C)(C)CC6)CC5)c(Cl)c4)n3C)c(C(F)(F)F)n2)nc1 [Example A1, N-[3-Chloro-4-[4-(1,1-dimethylpiperidin-1-ium-4-carbonyl)piperazine-1-carbonyl]phenyl]-5-[1-(5-methoxy-2-pyridyl)-3-(trifluoromethyl)pyrazol-4-yl]-1-methyl-imidazole-2-carboxamide; formate] | 95 nM |
| Cn1c(-c2cn(-c3ncccn3)nc2C(F)(F)F)cnc1C(=O)Nc1ccc(C(=O)N2CCN(C(=O)C[N+]3(C)CC[C@@H](O)C3)CC2)c(Cl)c1 (stereo partly drawn) [Example A6, N-[3-chloro-4-[4-[2-[(3R)-3-hydroxy-1-methyl-pyrrolidin-1-ium-1-yl]acetyl]piperazine-1-carbonyl]phenyl]-1-methyl-5-[1-pyrimidin-2-yl-3-(trifluoromethyl)pyrazol-4-yl]imidazole-2-carboxamide; formate] | 1300 nM |
